PubChem BioAssay AID624491 (Broad Institute, 2012)
The source made the active and inactive calls.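 How the source made its calls: active means fitted curve crossing a set activation limit at or below the highest valid dose tested; inconclusive means flat fit at 30 to 70% activation, or poor fit; inactive means the rest, including signal decreases.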

What follows are compounds tested on D54 ERlucT glycosylation luciferase reporter, luminescence, 24 h (assay: blockers of NLG process in reporter cells – D54 ERlucT cells, luminescence, cherry-picks, dose response (AID 624491);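 further: signal gain reflects blocked N-linked glycosylation of a luciferase reporter; actives raise luciferase signal so AC26 marks activators of the reporter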).

| SMILES | AC26 |
| --- | --- |
| CCOC(=O)Cc1csc(/N=C/c2c(O)n(-c3ccc(C)c(C)c3)c(=O)c3ccccc23)n1 | 2580 nM |
| CCN(CC)CCCNC(=O)CSc1c2c(nc3cc(Cl)ccc13)CCCC2 | 11400 nM |
| COc1cc(-c2nc(-c3ccccc3)c(-c3cccs3)[nH]2)cc(OC)c1O | 6100 nM |
| Cc1ccc(-n2nc(C)c(NC(=O)CCl)c2C)cc1 | 2210 nM |
| COc1cc(/C=N/NC(=O)c2cc(-c3cccn3C)n[nH]2)cc(OC)c1OC | 1730 nM |
| CCC(c1nc2ccccc2c(=O)n1-c1nc2ccccc2s1)N1C(=O)c2ccccc2C1=O (centres undefined) | 1030 nM |
| CCNc1ccc(C(=O)OCC)cc1NC(=O)c1cccc(N(C)C)c1 | 3160 nM |
| CCOC(=O)c1c(C)nc2sc3c(=O)n(-c4ccc(C)cc4)cnc3c2c1-c1ccc(OC)cc1 | 116 nM |
| Cc1ccc(-c2nc(NCCCN(C)C)c3ccccc3n2)cc1 | 5650 nM |
| CC(=O)c1cccc(-c2ccnc3c2CC(C(=O)NCc2ccc(F)c(F)c2)O3)c1 (centres undefined) | 1370 nM |
| OCCCNc1c2ccccc2nc2ccccc12 | 467 nM |
| COc1ccc2c(c1)[C@H]1[C@H](CO2)[C@H](c2ccccc2)[C@]2(C)C(=O)Nc3cc(F)ccc3C(=O)N12 | 19 nM |
| Cc1ccc(C)c(Cn2nnc3c(=O)[nH]c(C4CCN(C(=O)c5ccco5)CC4)nc32)c1 | 1110 nM |
| NC(=O)CC(NC(=O)Cc1ccc(Br)cc1)c1ccc(NCC2CC2)c([N+](=O)[O-])c1 (centres undefined) | 6670 nM |
| Cc1ccc(C)n1-c1cccc(NC(=O)c2ccccc2)c1 | 8830 nM |
| O=CC1=C(c2ccccc2)Oc2ccccc2O1 | 10300 nM |
| N=c1c(S(=O)(=O)c2ccc(Cl)cc2)cc2c(=O)n3ccccc3nc2n1CCc1ccccc1 | 122 nM |
| COc1cc2c3c(cccc3c1)C(=O)N(CCN1CCCC1)C2=O | 200 nM |
| C=CCNc1nc2cc(-c3ccccc3C)sc2c(=O)n1C | 2810 nM |
| c1ccc(CNc2ncnc3c2cnn3-c2ccccc2)cc1 | 8130 nM |
| O=C(C=Cc1ccccc1O)c1ccccc1O | 2850 nM |
| CC1=CC(C)[C@H](/C=N/n2c(=O)[nH]c3c([nH]c4ccc(Br)cc43)c2=O)C(C)C1 (some centres undefined) | 3780 nM |
| Nc1cc2c3c(cccc3c1)C(=O)N(CCN1CCCC1)C2=O | 275 nM |
| Cc1cccc2c(N)c3c(nc12)N(C)CC3 | 7370 nM |
| CCOc1ccc2[nH]c3c(N4CCc5ccccc5C4)ncnc3c2c1 | 3460 nM |
| CC(=O)Nc1sc(NC(=O)c2ccccc2)nc1-c1cccs1 | 3450 nM |
| O=C(NCc1ccccc1)C1Cc2c(-c3cccc(F)c3)ccnc2O1 (centres undefined) | 11.2 nM |

| SMILES | AC26 |
| --- | --- |
| C[C@@]12C(=O)Nc3cc(F)c(F)cc3C(=O)N1[C@H]1c3cc(Cl)ccc3OC[C@@H]1[C@@H]2c1ccccc1 | 789 nM |
| Cn1nc(-c2ccc(N3CCOCC3)c(NS(=O)(=O)c3ccccc3)c2)c2ccccc2c1=O | 6110 nM |
| Cn1c(=O)n(C)c2cc(NS(=O)(=O)c3ccc(F)cc3)ccc21 | 5290 nM |
| Cn1nc(C(=O)Nc2cccc(S(=O)(=O)N3CCCCC3)c2)c2ccccc2c1=O | 284 nM |
| Cn1c(=O)[nH]c(=O)c2c1nc(SCC(N)=O)n2Cc1cccc(Br)c1 | 660 nM |
| CS(=O)(=O)Nc1cccc(NC(=O)C2Cc3c(-c4ccccc4)ccnc3O2)c1 (centres undefined) | 2360 nM |
| Cc1ccc(Sc2c(CO)c(-c3ccccc3)nn2C)cc1 | 341 nM |
| Cc1cc(N2CCCCC2)nc(NCc2ccccc2)n1 | > 19500 nM (inactive) |
| COC(=O)/C=C1\C(=O)N(c2nc3ccccc3s2)C(=S)N1c1ccc(F)cc1 | 2300 nM |
| CN(C)c1ccc(C(C[N+](=O)[O-])c2c(N)n(C)c(=O)n(C)c2=O)c(F)c1C#N (centres undefined) | 3300 nM |
| COc1cccc(C(NC(C)=O)c2nc(-c3ccccc3C)cs2)c1 (centres undefined) | 774 nM |
| Cc1ccc(S(=O)(=O)[N-]c2nc3ccccc3nc2-n2cc[n+](Cc3ccccc3)c2)cc1 | 118 nM |
| COc1cc(-n2c(N)c(C(=O)NCc3ccco3)c3nc4ccccc4nc32)cc(OC)c1OC | 2090 nM |
| Cn1cccc1/C=C1\SC(=Nc2ccccc2)NC1=O | 1150 nM |
| CCCCCCC(=O)N(O)C1CC(=O)N(Cc2ccccc2)C1=O (centres undefined) | 6200 nM |
| O=C1N[C@H]2CC=C[C@H]2N(Cc2cccs2)c2ccccc21 | 895 nM |
| C/C(=N\NC(=O)c1c(Cl)c(C)nn1C)c1ccc(NC(=O)C2CCC2)cc1 | 3.55 nM |
| Cc1ccc2c(c1)[C@H]1[C@H](CO2)[C@H](c2ccccc2)[C@]2(C)C(=O)Nc3ccc(Br)cc3C(=O)N12 | 1430 nM |
| Cc1ccc(Nc2nc(N)nc(CN3CCN(Cc4ccccc4)CC3)n2)cc1Cl | 110 nM |
| Cc1ccc(OCCN2C(=O)C(=O)c3cc(C)ccc32)cc1 | 2460 nM |
| COc1ccc(/C=C/C(=O)Oc2cccc(/C=N/NC(=O)COc3c(C)cccc3C)c2)cc1 | 4770 nM |
| COc1ccc2sc3cccc(NCCN(C)C)c3c(=O)c2c1 | 4530 nM |
| COc1ccccc1NC(=O)c1cnc(SCC(=O)NCC2CCCO2)n(C)c1=O (centres undefined) | 1970 nM |
| COc1ccc(NC(=O)C2(C)Cc3c(-c4cccc(C(N)=O)c4)ccnc3O2)cn1 (centres undefined) | 10700 nM |
| COc1cccc(-c2cnc3c(NC=O)cc(-c4cc(C)c(O)c(C)c4)cn23)c1 | 2140 nM |
| O=C(NCCCN1CCOCC1)c1cc(-c2cccs2)on1 | 3670 nM |
| CCc1ccc(N2C(=O)NC(=O)/C(=C\C=C\c3ccco3)C2=O)cc1 | 1280 nM |
